Assay results: patent US20220304996A1, “REBAMIPIDE FOR USE IN PROPHYLAXIS AND TREATMENT OF CELIAC DISEASE” (SQUARE POWER LTD., priority 2019, published 2022)

Assays:
Assay type in all cases: in vivo, human
[1] = tested on: celiac disease; assay: Elimination-provocation (gluten challenge) test: Gastrointestinal Symptom Rating Scale (GSRS); conditions: for GSRS (mean total score): rebamipide 100 mg three times a day
Text: To study the effect of rebamipide on the celiac disease, a gluten challenge test was employed. Adult patients admitted into the test were stabilized on a gluten-free diet (GFD) leading to disappearance of the disease symptoms for at least 12 months. All participants were previously diagnosed by a physician for the celiac disease using upper endoscopy and duodenal biopsy. The gluten-free diet adherence was confirmed by high villous height/crypt depth ratio (Vh/Cd>2-3) and decline in anti-tTG antibody levels (less than 10 U/mL) after the exclusion of gluten from the diet.
Patients were divided into two groups taking either rebamipide 100 mg three times a day or placebo just before each major meal. Both groups continued the gluten-free diet. The gluten challenge test was carried out three month (day 90) after the start of the treatment. Patients were given one slice of white bread comprising about 2.7 g of wheat gluten every day for the period of 6 weeks but otherwise maintained their usual gluten-free diet. Both groups continued receiving either rebamipide or placebo treatment.
CD symptoms were weekly evaluated by the Gastrointestinal Symptom Rating Scale (GSRS) questionnaire, an instrument that is widely used in research on celiac disease and other gastrointestinal disorders (Svedlund J, Sjodin I, Dotevall G. GSRS—a clinical rating scale for gastrointestinal symptoms in patients with irritable bowel syndrome and peptic ulcer disease. Dig Dis Sci 1988; 33:129-134). It consists of 15 questions that are grouped into five domains (diarrhea, abdominal pain, indigestion, constipation, and reflux), which are combined into a total score calculated as a mean of all 15 questions. The scoring is based on a Likert scale from 1 to 7 points, where 1 point indicates minimal gastrointestinal symptoms and 7 points the most severe symptoms.

[2] = tested on: intestinal permeability; assay: Elimination-provocation (gluten challenge) test: urinary lactulose/mannitol (La/Ma) fractional excretion ratio; conditions: for La/Ma (urinary lactulose/mannitol fractional excretion ratio): rebamipide 100 mg three times a day
Text: To study the effect of rebamipide on the celiac disease, a gluten challenge test was employed. Adult patients admitted into the test were stabilized on a gluten-free diet (GFD) leading to disappearance of the disease symptoms for at least 12 months. All participants were previously diagnosed by a physician for the celiac disease using upper endoscopy and duodenal biopsy. The gluten-free diet adherence was confirmed by high villous height/crypt depth ratio (Vh/Cd>2-3) and decline in anti-tTG antibody levels (less than 10 U/mL) after the exclusion of gluten from the diet. Patients were divided into two groups taking either rebamipide 100 mg three times a day or placebo just before each major meal. Both groups continued the gluten-free diet. The gluten challenge test was carried out three month (day 90) after the start of the treatment. Patients were given one slice of white bread comprising about 2.7 g of wheat gluten every day for the period of 6 weeks but otherwise maintained their usual gluten-free diet. Both groups continued receiving either rebamipide or placebo treatment. The intestinal permeability was measured using the standard urinary lactulose/mannitol (La/Ma) fractional excretion ratio at the beginning of the lest, before and after 6-week challenge. The La/Ma test is based on a different absorption of non-metabolized sugars. In the healthy intestine, monosaccharides (e.g. mannitol) are passively absorbed through the intestinal mucosa, while larger disaccharide molecules (e.g. lactulose) are normally almost not absorbed. On the contrary, patients with the celiac disease have a consistent increase in the absorption of lactulose (via the paracellular route) due to increased permeability of the intestine and a reduction in the absorption of mannitol (via the transcellular route) due to a reduction in surface area as a result of villous atrophy, resulting in an increase in the La/Ma ratio.

[3] = tested on: celiac disease; assay: Elimination-provocation (gluten challenge) test: duodenal biopsy, villous height to crypt depth ratio; conditions: for Vh/Cd (villous height to crypt depth ratio): duodenal biopsy
Text: (§1) To study the effect of rebamipide on the celiac disease, a gluten challenge test was employed. Adult patients admitted into the test were stabilized on a gluten-free diet (GFD) leading to disappearance of the disease symptoms for at least 12 months. All participants were previously diagnosed by a physician for the celiac disease using upper endoscopy and duodenal biopsy. The gluten-free diet adherence was confirmed by high villous height/crypt depth ratio (Vh/Cd>2-3) and decline in anti-tTG antibody levels (less than 10 U/mL) after the exclusion of gluten from the diet. Patients were divided into two groups taking either rebamipide 100 mg three times a day or placebo just before each major meal. Both groups continued the gluten-free diet. The gluten challenge test was carried out three month (day 90) after the start of the treatment. Patients were given one slice of white bread comprising about 2.7 g of wheat gluten every day for the period of 6 weeks but otherwise maintained their usual gluten-free diet. Both groups continued receiving either rebamipide or placebo treatment. Duodenal biopsy was performed at the beginning (day 0) and at the end (day 132) of the study period. Villous height to crypt depth ratio (Vh/Cd) was determined by measuring the mean height/mean depth of adjacent villi/crypts by a pathologist. The ratio of <2 is regarded as indicative of villous atrophy and crypt hyperplasia.

[4] = tested on: anti-tTG IgA antibody; assay: Elimination-provocation (gluten challenge) test: serum anti-tTG IgA antibody ELISA
Text: as §1, with “Serum mean anti-tTG IgA antibody levels were” for “Duodenal biopsy was performed at the beginning (day 0) and at the end (day 132) of the study period. Villous height to crypt depth ratio (Vh/Cd) was”, “an enzyme-linked immunosorbent assay (ELISA) and” for “measuring”, “difference at baseline” for “mean height/mean depth of adjacent villi/crypts by a pathologist. The ratio of <2 is regarded as indicative of villous atrophy”, “after 6-week challenge was compared.” for “crypt hyperplasia.”

[5] = day 132, after 6-week gluten challenge, rebamipide 100 mg three times a day

## O=C(NC(Cc1cc(=O)[nH]c2ccccc12)C(=O)O)c1ccc(Cl)cc1 (stereo not drawn) [Rebamipide, 2-[(4-chlorobenzoyl)amino]-3-(2-oxo-1H-quinolin-4-yl)propanoic acid]
[1]; at the end of the study (day 132)
  difference in mean GSRS scores, rebamipide lower than placebo: 0.6 units
[1]; day 0 (baseline), adult celiac patients on gluten-free diet
  GSRS (mean total score): 2.0
[1]; day 90, after three month pretreatment, before gluten challenge
  GSRS (mean total score): 1.7
[1]; day 132, after 6-week gluten challenge (about 2.7 g wheat gluten every day)
  GSRS (mean total score): 1.8
[2]; at the end of the gluten challenge
  La/Ma ratio versus baseline: remained near the baseline
[2]; day 0 (baseline)
  La/Ma (urinary lactulose/mannitol fractional excretion ratio): 0.057
[2]; day 90, before gluten challenge
  La/Ma (urinary lactulose/mannitol fractional excretion ratio): 0.038
[2]; day 132, after 6-week gluten challenge
  La/Ma (urinary lactulose/mannitol fractional excretion ratio): 0.048
[3]; after 6 weeks of daily gluten intake
  change from baseline to post treatment in villus height to crypt depth ratio: didn't exhibit negative changes
[3]; day 0 (baseline)
  Vh/Cd (villous height to crypt depth ratio): 2.9
[3]; [5]
  Vh/Cd (villous height to crypt depth ratio): 3.1
[4]; after the gluten challenge
  mean anti-tTG IgA antibody titers: < 10 U/ml
[4]; day 0 (baseline)
  anti-tTG IgA (serum mean antibody level): 3.9 U/ml
[4]; day 90, before gluten challenge, rebamipide 100 mg three times a day
  anti-tTG IgA (serum mean antibody level): 4.3 U/ml
[4]; [5]
  anti-tTG IgA (serum mean antibody level): 7.8 U/ml
